Measured values: PMC3180999 (Journal of medicinal chemistry, 2010)

Key:
LNCaP/AR cells = experiment: PSA expression readout in LNCaP/AR; type: cell-based; conditions: for activity using PSA levels in vitro: hormone refractory cell line LNCaP/AR, Scheme 17; for activity in the hormone refractory LNCaP/AR assay: Schemes 18 and 19; for activity: hormone-refractory LNCaP/AR, Scheme 21
LAPC4/AR cells = experiment: LAPC4/AR xenograft in castrate SCID mice; type: in vivo; conditions: 10 mg/kg, pilot experiment, Figure 1
AR [1] = experiment: luciferase reporter assay; type: cell-based; conditions: for relative luciferase activity: vs bicalutamide and 27 as standards, Scheme 8; for luciferase assay activity: vs 21 and 22 as standards, Scheme 13; for luciferase reporter assay activity: Scheme 14
PSA secretion = experiment: relative PSA level / PSA secretion assay, cell line not named; type: cell-based; conditions: for relative PSA expression levels: vs bicalutamide and 27 as standards, Scheme 9
AR [2] = experiment: activity test, assay not named; type: cell-based; conditions: 27 as the standard, Scheme 10
[3] = pharmacokinetics: serum concentration, steady state concentration
[4] = vs 27 and 38 as standards, Scheme 12
[5] = vs 21 and 22 as standards, Scheme 13

SMILES: CC(O)(CS(=O)(=O)c1ccc(F)cc1)C(=O)Nc1ccc(C#N)c(C(F)(F)F)c1 (stereo not drawn) [bicalutamide, reference compound]
- activity using PSA levels in vitro (LNCaP/AR cells): inactive

SMILES: Cc1ccc(N2C(=S)N(c3ccc(C#N)c(C(F)(F)F)c3)C(=O)C2(C)C)cc1 [compound 27, 4-[3-(4-Methylphenyl)-4,4-dimethyl-5-oxo-2-thioxoimidazolidin-1-yl]-2-trifluoromethylbenzonitrile]
- fold change in tumor volume of xenografts (LAPC4/AR cells): more effective than bicalutamide

SMILES: CCC1(C)C(=O)N(c2ccc(C)cc2)C(=S)N1c1ccc(C#N)c(C(F)(F)F)c1 (stereo not drawn) [compound 36, 4-[3-(4-Methylphenyl)-5-ethyl-5-methyl-4-oxo-2-thioxoimidazolidin-1-yl]-2-trifluoromethylbenzonitrile]
- relative luciferase activity (AR [1]): reduced activity relative to 27

SMILES: CCC1(CC)C(=O)N(c2ccc(C)cc2)C(=S)N1c1ccc(C#N)c(C(F)(F)F)c1 [compound 37, 4-[3-(4-Methylphenyl)-5,5-diethyl-4-oxo-2-thioxoimidazolidin-1-yl]-2-trifluoromethylbenzonitrile]
- relative luciferase activity (AR [1]): reduced activity relative to 27

SMILES: Cc1ccc(N2C(=S)N(c3ccc(C#N)c(C(F)(F)F)c3)C(=O)C23CCCC3)cc1 [compound 39, 4-(4-Oxo-2-thioxo-1-(4-methylphenyl)-1,3-diazaspiro[4.4]non-3-yl)-2-trifluoromethylbenzonitrile]
- relative PSA expression levels (PSA secretion): comparable to the dimethyl analogue 27

SMILES: Cc1ccc(N2C(=S)N(c3ccc(C#N)c(C(F)(F)F)c3)C(=O)C23CCN(C)CC3)cc1 [compound 43, 4-(8-Methyl-4-oxo-2-thioxo-1-(4-methylphenyl)-1,3,8-triazaspiro[4.5]dec-3-yl)-2-trifluoromethylbenzonitrile]
- relative PSA expression levels (PSA secretion): distinctly less active

SMILES: Cc1ccccc1N1C(=S)N(c2ccc(C#N)c(C(F)(F)F)c2)C(=O)C12CCC2 [compound 44]
- activity (AR [2]): active

SMILES: N#Cc1ccc(N2C(=O)C3(CCC3)N(c3ccccc3C(=O)O)C2=S)cc1C(F)(F)F [compound 45]
- activity (AR [2]): inactive

SMILES: Cc1ccc(N2C(=S)N(c3ccc(C#N)c(C(F)(F)F)c3)C(=O)C2(CCl)CCl)cc1 [compound 46]
- activity (AR [2]): decreased activity

SMILES: Cc1ccc(N2C(=S)N(c3ccc(C#N)c(C(F)(F)F)c3)C(=O)C2(C)CF)cc1 (stereo not drawn) [compound 47]
- activity (AR [2]): good activity

SMILES: N#Cc1ccc(N2C(=O)C3(CCC3)N(c3ccc(-c4ccccc4)cc3)C2=S)cc1C(F)(F)F [compound 48]
- relative PSA readout (PSA secretion; vs standards, Scheme 11): very similar in activity to 38

SMILES: N#Cc1ccc(N2C(=O)C3(CCC3)N(c3ccc(O)cc3)C2=S)cc1C(F)(F)F [compound 49, 4-(8-Oxo-6-thioxo-5-(4-hydroxyphenyl)-5,7-diazaspiro[3.4]oct-7-yl)-2-trifluoromethylbenzonitrile]
- relative PSA readout (PSA secretion; vs standards, Scheme 11): very similar in activity to 38

SMILES: CC1(C)C(=O)N(c2ccc(C#N)c(C(F)(F)F)c2)C(=S)N1c1ccc(C(F)(F)F)cc1 [compound 52, 4-(4,4-Dimethyl-5-oxo-2-thioxo-3-(4-trifluoromethylphenyl)imidazolidin-1-yl)-2-trifluoromethylbenzonitrile]
- relative PSA readout (PSA secretion; vs standards, Scheme 11): slightly more active than the methyl analogue 27

SMILES: Cc1ccc(N2C(=S)N(c3ccc(C#N)c(C(F)(F)F)c3)C(=N)C23CCC3)cc1 [compound 53]
- relative PSA readout (PSA secretion; [4]): nearly as active as the parent compounds 27 and 38

SMILES: Cc1ccc(N2C(=S)N(c3ccc(C#N)c(C(F)(F)F)c3)C(=N)C2(C)C)cc1 [compound 54]
- relative PSA readout (PSA secretion; [4]): nearly as active as the parent compounds 27 and 38

SMILES: CC1(C)C(=S)N(c2ccc(C#N)c(C(F)(F)F)c2)C(=S)N1c1ccc(O)cc1 [compound 55]
- relative PSA readout (PSA secretion; [4]): not as active as the parent thiohydantoin 28

SMILES: CC1(C)C(=O)N(c2ccc(C#N)c(C(F)(F)F)c2)C(=O)N1c1ccc(O)cc1 [compound 56]
- relative PSA readout (PSA secretion; [4]): not as active as the parent thiohydantoin 28

SMILES: C/N=C1\N(c2ccc(C#N)c(C(F)(F)F)c2)C(=S)N(c2ccc(C)cc2)C12CCC2 [compound 57]
- relative PSA levels (PSA secretion; [5]): somewhat active
- luciferase assay activity (AR [1]): somewhat active

SMILES: CC/N=C1\N(c2ccc(C#N)c(C(F)(F)F)c2)C(=S)N(c2ccc(C)cc2)C1(C)C [compound 60]
- relative PSA levels (PSA secretion; [5]): somewhat active
- luciferase assay activity (AR [1]): somewhat active

SMILES: Cc1ccc(N2/C(=N/c3ccc(C#N)c(C(F)(F)F)c3)S/C(=N\C(=S)Nc3ccc(C#N)c(C(F)(F)F)c3)C2(C)C)cc1 [compound 63]
- relative PSA levels (PSA secretion; Scheme 14): excellent activity comparable to their parent thiohydantoin analogues 27 and 38
- luciferase reporter assay activity (AR [1]): excellent activity comparable to their parent thiohydantoin analogues 27 and 38

SMILES: Cc1ccc(N2/C(=N/c3ccc(C#N)c(C(F)(F)F)c3)S/C(=N\C(=S)Nc3ccc(C#N)c(C(F)(F)F)c3)C23CCC3)cc1 [compound 64]
- relative PSA levels (PSA secretion; Scheme 14): excellent activity comparable to their parent thiohydantoin analogues 27 and 38
- luciferase reporter assay activity (AR [1]): excellent activity comparable to their parent thiohydantoin analogues 27 and 38

SMILES: N#Cc1ccc(N2C(=O)C3(CCC3)N(c3ccc(C=O)cc3)C2=S)cc1C(F)(F)F [compound 75, 4-[5-(4-Formylphenyl)-8-oxo-6-thioxo-5,7-diazaspiro[3.4]oct-7-yl]-2-trifluoromethylbenzonitrile]
- IC50 (PSA secretion): 200 to 300 nM

SMILES: CC(O)c1ccc(N2C(=S)N(c3ccc(C#N)c(C(F)(F)F)c3)C(=O)C23CCC3)cc1 (stereo not drawn) [compound 76, 4-{5-[4-(1-Hydroxyethyl)phenyl]-8-oxo-6-thioxo-5,7-diazaspiro[3.4]oct-7-yl}-2-trifluoromethylbenzonitrile]
- IC50 (PSA secretion): 200 to 300 nM

SMILES: N#Cc1ccc(N2C(=O)C3(CCC3)N(c3ccc(/C=C/C(N)=O)cc3)C2=S)cc1C(F)(F)F [compound 77, (E)-3-{4-[7-(4-cyano-3-trifluoromethylphenyl)-8-oxo-6-thioxo-5,7-diazaspiro[3.4]oct-5-yl]-phenyl}-2-propanamide]
- IC50 (PSA secretion): 100 to 150 nM

SMILES: N#Cc1ccc(N2C(=O)C3(CCC3)N(c3ccc(/C=C/CO)cc3)C2=S)cc1C(F)(F)F [compound 78, (E)-4-{5-[4-(3-Hydroxy-1-propenyl)phenyl]-8-oxo-6-thioxo-5,7-diazaspiro[3.4]oct-7-yl}-2-trifluoromethylbenzonitrile]
- IC50 (PSA secretion): 100 to 150 nM

SMILES: CNC(=O)CCCc1ccc(N2C(=S)N(c3ccc(C#N)c(C(F)(F)F)c3)C(=O)C23CCC3)cc1 [compound 80, N-Methyl-4-{4-[7-(4-cyano-3-trifluoromethylphenyl)-8-oxo-6-thioxo-5,7-diaza-spiro[3.4]-oct-5-yl]phenyl}butanamide]
- activity using PSA levels in vitro (LNCaP/AR cells): most active compound
- PK (serum concentration curve) ([3]; Figure 4): poor
- metabolism seen ([3]; mouse, in vivo): hydrolysis of the N-methyl amide to the acid was seen

SMILES: CS(=O)(=O)c1ccc(N2C(=S)N(c3ccc(C#N)c(C(F)(F)F)c3)C(=O)C23CCC3)cc1 [compound 86, 4-[5-(4-Methanesulfonylphenyl)-8-oxo-6-thioxo-5,7-diazaspiro[3.4]oct-7-yl]-2-trifluoromethylbenzonitrile]
- activity in the hormone refractory LNCaP/AR assay (LNCaP/AR cells): good activity

SMILES: COC(=O)c1ccc(N2C(=S)N(c3ccc(C#N)c(C(F)(F)F)c3)C(=O)C2(C)C)cc1 [compound 87, 4-[3-(4-Cyano-3-trifluoromethylphenyl)-5,5-dimethyl-4-oxo-2-thioxo-imidazolidin-1-yl]benzoic acid methyl ester]
- activity in the hormone refractory LNCaP/AR assay (LNCaP/AR cells): good activity

SMILES: CNC(=O)c1ccc(N2C(=S)N(c3ccc(C#N)c(C(F)(F)F)c3)C(=O)C2(C)C)cc1 [compound 88, 4-[3-(4-Cyano-3-trifluoromethylphenyl)-5,5-dimethyl-4-oxo-2-thioxo-imidazolidin-1-yl]-N-methylbenzamide]
- activity in the hormone refractory LNCaP/AR assay (LNCaP/AR cells): good activity

SMILES: CNC(=O)c1ccc(N2C(=S)N(c3ccc(C#N)c(C(F)(F)F)c3)C(=O)C23CCC3)cc1 [compound 89, N-methyl-4-[7-(4-cyano-3-trifluoromethylphenyl)-8-oxo-6-thioxo-5,7-diazaspiro-[3.4]oct-5-yl]benzamide]
- activity in the hormone refractory LNCaP/AR assay (LNCaP/AR cells): good activity

SMILES: N#Cc1ccc(N2C(=O)C3(CCC3)N(c3ccc(O)cc3F)C2=S)cc1C(F)(F)F [compound 90]
- activity in the hormone refractory LNCaP/AR assay (LNCaP/AR cells): good activity

SMILES: CNC(=O)c1ccc(N2C(=S)N(c3ccc(C#N)c(C(F)(F)F)c3)C(=O)C2(C)C)cc1F [compound 92, N-Methyl-4-[3-(4-cyano-3-trifluoromethylphenyl)-5,5-dimethyl-4-oxo-2-thioxoimidazolidin-1-yl]-2-fluorobenzamide]
- dose-response study on castration resistant LNCaP AR cells (LNCaP/AR cells; Figure 9): a little more active than 91
- activity (LNCaP/AR cells): very active

SMILES: CNC(=O)c1ccc(N2C(=S)N(c3ccc(C#N)c(C(F)(F)F)c3)C(=O)C23CCCC3)cc1F [compound 93, N-Methyl-4-[3-(4-cyano-3-trifluoromethylphenyl)-4-oxo-2-thioxo-1,3-diazaspiro[4.4]nonan-1-yl]-2-fluorobenzamide]
- activity (LNCaP/AR cells): very active

SMILES: CN(C)C(=O)CCCc1ccc(N2C(=S)N(c3ccc(C#N)c(C(F)(F)F)c3)C(=O)C23CCC3)cc1 [compound 94, N,N-dimethyl-4-[4-(7-(4-cyano-3-trifluoromethylphenyl)-8-oxo-6-thioxo-5,7-diazaspiro-[3.4]octan-5-yl)phenyl]butanamide]
- activity (LNCaP/AR cells): quite good activity compared to earlier compounds

SMILES: N#CCCCc1ccc(N2C(=S)N(c3ccc(C#N)c(C(F)(F)F)c3)C(=O)C23CCC3)cc1 [compound 95, 4-[5-(4-(3-Cyanopropyl)phenyl)-8-oxo-6-thioxo-5,7-diazaspiro[3.4]octan-7-yl]-2-(trifluoromethyl) benzonitrile]
- activity (LNCaP/AR cells): quite good activity compared to earlier compounds
